Test results: US4444776A, “Dipyrido (4,3-B) (3,4-F) indoles, process for obtaining them, therapeutical use and pharmaceutical compositions” (priority 1977, dated 1984)
Like-named read-outs stand apart in the source and are kept apart here.

Key:
[1] = system: Moloney virus / viro-induced Moloney sarcoma; experiment: Test 3: development of the viro-induced Moloney sarcoma; type: in vivo, new-born mice; settings: 1 μg/mouse (0.5 mg/kg)
Description: The study of the development of the MOLONEY viro-induced sarcoma (Nat. Cancer. Inst. Monograph 22, 139-142, 1966) has also made it possible to determine that the compounds according to the invention are antiviral and antitumoral agents in lower animals.
Test 3: Study of the development of the viro-induced Moloney sarcoma
The injection of Moloney virus [C. Jasmin et al. J. Nat. Cander Inst. 1974 53 469-474] by the intramuscular i.m. route into new-born mice led after 10 days to the formation of a sarcoma. The appearance of the tumour was proportional to the dose of virus injected. The viral inoculum was constituted by a tumor homogenate diluted to 1/250, this corresponding to 10 TID 50, i.e. to the dose of virus inducing the appearance of a tumour in 50% of the animals infected. At this dose, 80 to 100% of the animals developed a tumour, and 100% of the survivors became leukemic. The experiment thus consisted in noting the number of mice presenting tumours, the regression, or not, of these tumours and finally in sacrificing the surviving animals after 2 months and in noting the presence or absence of splenomegaly (evidence of a leukemia). The virus was inoculated into new-born mice of 3 to 5 days by the IM route, and the mice received the following day (J+1) or five hours after injection (JO+5 hours) the product to be tested by the IP route.

new-born mice = experiment: Test 4: toxicity on new-born mice, IP; type: in vivo, mouse; settings: new-born mice
Description: Test 4: Investigation of the toxicity
The toxic dose has been sought, on adult ([…]×DBA/2) Fl mice and on new-born mice, of the compounds of the invention by injection by the IP route. The results obtained are given hereinafter:
2-On new-born mice (IP route)

[2] = Test 8: acute toxicity in vivo, C3H mice; settings: mouse, read-out: LD 500
Experimental: (§1) Test 8: Acute toxicity in vivo
(§2) The products to be tested were injected by the IP route into groups of 10 mice at various dilutions. Each day, the number of dead animals is noted. If the doses are well chosen, a 100% lethal dose and a 50% lethal dose have been able to be defined for each product. This study is limited to two months. Two isogenic mouse strains were systematically used: C3H/He and ICFW.

C3H/He mice = experiment: Test 8: acute toxicity in vivo, C3H mice; settings: mouse, ip
Experimental: as §1, §2

L 1210 leukemia = experiment: Test 11: L 1210 leukemic mice, examples 7 and 8 (Table VIII); type: in vivo, mouse; set-up: MTS: unit not given beside the values; settings: J+1
Experimental: This test was carried out with 10^3, 10^4 and 10^5 leukemic cells on day J. This test was also carried out with the compound of example 7, i.e. 1-[(γ-diethylaminopropyl)amino]-5-methyl-dipyrido [4,3-b][3,4-f] indole (compound 21).

Friend leukemia virus = experiment: Test 14: viro-induced Friend leukemia, compound 21 (Tables Xa, Xb); type: in vivo, mouse; set-up: MST: unit not given beside the values; settings: for life span: Tables Xa and II
Experimental: Test 14: viro-induced leukemia: Friend leukemia
A- As in test 2 hereinabove, the Friend leukemia virus inoculum was obtained from leukemia spleen and diluted to contain 100 SD50 /0.2 ml (SD50 =spleen enlarging dose 50 percent). The product to be tested was compound 21 (obtained according to example 7). It was given by I.P. route as a single injection 1 day after virus inoculation. […]
B. The proceeding of test 2 was repeated by using the compound 21 i.e. 1-[(γ-diethylaminopropyl)amino]-5-methyl-dipyrido[4,3-b][3,4-f]indole obtained according to example 7.
This test was carried out with a single dose of compound 21 (20 mg/kg) and with various virus doses.

L1210 leukemia [3] = experiment: Test 18: dose-L1210 antitumoral activity of compound 21; type: in vivo, mouse
Description: Test 18: Relationship between dose and L1210 antitumoral activity of compound 21 […]

replication of the DNA = experiment: Test 6: DNA replication in synchronised cells; type: cell-based; settings: first minutes following addition
L1210 leukemia [4] = experiment: Test 15: L1210 leukemia, compound of formula 8 (Table XI); type: in vivo, mouse; settings: for ILS % / MST / Range of death: 50 mg/kg
Experimental: The proceeding of test 1 was repeated with the compound of formula 8 obtained according to example 1, i.e. 5,11-dimethyl-dipyrido[4,3-b][3,4-f]indole. In this test, the compound of formula 8 was injected four days after the inoculation of the cells (50 mg/kg). The results are shown in table XI wherein the results obtained with the same compound injected one day after the cell inoculation are also reported (see experiment no. 2 in table I).

[5] = Table Xa, 5 mg/kg, 1 day after virus
[6] = Table Xb, 20 mg/kg J+1, virus 1/500 (1000 SD50)
[7] = Table Xb, 20 mg/kg J+1, virus 1/1000
[8] = Table Xb, 20 mg/kg J+1, virus 1/2000 (250 SD50)

CCN(CC)CCCNc1nccc2c(C)c3[nH]c4ccncc4c3cc12 [Example 7, 1-(γ-diethylaminopropyl)amino-5-methyl-dipyrido-[4,3-b][3,4-f] indole]
animals survived ([1]; J+1): 90% | mice presenting tumours ([1]; J+1): 70% | mice with leukemia ([1]; J+1): 0% | tumours regressed ([1]; J+1): 90% | animals presenting a tumour ([1]; JO+5 hours): 5% | animals survived ([1]; JO+5 hours): 100% | mice with leukemia ([1]; JO+5 hours): 40% | tumours regressed ([1]; JO+5 hours): 100% | toxic dose (new-born mice): higher than 2.5 mg/kg of mouse | LD50 ([2]; C3H, IP): 20 mg/kg | LD 100 (C3H/He mice): 35 mg/kg | ILS % (L 1210 leukemia; 10^3 cells, 0.1 mg/mouse): 15.4% | MTS (L 1210 leukemia; 10^3 cells, 0.1 mg/mouse): 15 | Number of surviving mice (L 1210 leukemia; 10^3 cells, 0.1 mg/mouse): 4 | ILS % (L 1210 leukemia; 10^3 cells, 0.2 mg/mouse): 25.4% | MTS (L 1210 leukemia; 10^3 cells, 0.2 mg/mouse): 16.3 | Number of surviving mice (L 1210 leukemia; 10^3 cells, 0.2 mg/mouse): 7 | ILS % (L 1210 leukemia; 10^4 cells, 0.1 mg/mouse): 65.1% | MTS (L 1210 leukemia; 10^4 cells, 0.1 mg/mouse): 18 | Number of surviving mice (L 1210 leukemia; 10^4 cells, 0.1 mg/mouse): 1 | ILS % (Friend leukemia virus; [5]): 39% | MST (Friend leukemia virus; [5]): 44.5 | Range of death (Friend leukemia virus; [5]): 27 to 52 days | ILS % (Friend leukemia virus; [6]): 40% | MST (Friend leukemia virus; [6]): 40.7 | Range of death (Friend leukemia virus; [6]): 31-51 | Survivors 4 months after inoculation (Friend leukemia virus; [6]): 0 | ILS % (Friend leukemia virus; [7]): 82.7% | MST (Friend leukemia virus; [7]): 44.4 | Range of death (Friend leukemia virus; [7]): 30-54 | Survivors 4 months after inoculation (Friend leukemia virus; [7]): 0 | ILS % (Friend leukemia virus; [8]): 64% | MST (Friend leukemia virus; [8]): 55.4 | Range of death (Friend leukemia virus; [8]): 50-82 | Survivors 4 months after inoculation (Friend leukemia virus; [8]): 2 | life span (Friend leukemia virus): significant increase of the life span | ILS (L1210 leukemia [3]; 5 mg/kg): 87% | ILS (L1210 leukemia [3]; 10 mg): 52% | inoculated mice surviving up to 60 days (L1210 leukemia [3]; 20 mg per kg): 20% | ILS (L1210 leukemia [3]; 20 mg/kg): 75% | inoculated mice surviving up to 60 days (L1210 leukemia [3]; 100mg (so in the source)): 10%

Cc1c2ccncc2c(C)c2c1[nH]c1ccncc12 [Example 1, 5,11-dimethyl dipyrido [4,3-b][3,4-f] indole]
animals presenting a tumour ([1]; JO+5 hours): 50% | animals survived ([1]; JO+5 hours): 75% | mice with leukemia ([1]; JO+5 hours): 65% | tumours regressed ([1]; JO+5 hours): 30% | replication of the DNA, initiation and elongation steps (replication of the DNA): stops, in the first minutes following its addition, the replication of the DNA | LD50 ([2]; ip): 100 mg/kg | LD 100 (C3H/He mice): 200 mg/kg | life span (Friend leukemia virus): significant increase of the life span | ILS % (L1210 leukemia [4]; 10^4 cells, day +1): 11.8% | MST (L1210 leukemia [4]; 10^4 cells, day +1): 12.3 days | Range of death (L1210 leukemia [4]; 10^4 cells, day +1): 11-14 | ILS % (L1210 leukemia [4]; 10^4 cells, day +4): 14.7% | MST (L1210 leukemia [4]; 10^4 cells, day +4): 12 days | Range of death (L1210 leukemia [4]; 10^4 cells, day +4): 10-16 | ILS % (L1210 leukemia [4]; 10^5 cells, day +1): 38.1% | MST (L1210 leukemia [4]; 10^5 cells, day +1): 12.85 days | Range of death (L1210 leukemia [4]; 10^5 cells, day +1): 10-13 | ILS % (L1210 leukemia [4]; 10^5 cells, day +4): 15.7% | MST (L1210 leukemia [4]; 10^5 cells, day +4): 10.3 days | Range of death (L1210 leukemia [4]; 10^5 cells, day +4): 10-11 | ILS % (L1210 leukemia [4]; 10^6 cells, day +1): 47.3% | MST (L1210 leukemia [4]; 10^6 cells, day +1): 11.5 days | Range of death (L1210 leukemia [4]; 10^6 cells, day +1): 9-15 | ILS % (L1210 leukemia [4]; 10^6 cells, day +4): 34.3% | MST (L1210 leukemia [4]; 10^6 cells, day +4): 9 days | Range of death (L1210 leukemia [4]; 10^6 cells, day +4): 8-13 | increased life span (ILS %), early vs late administration (L1210 leukemia [4]; product given earlier after the cells inoculum): higher when the product was given earlier
